Results published in US12208105B2, “Methods for attenuating graft-versus-host disease and opportunistic infections” (priority 2018, dated 2025).

Key:
[1] = system: B6 into BALB/c aGVHD model; assay: aGVHD, B6 into BALB/c MHC mismatched allograft, Tcons incubated ex vivo; format: in vivo, mouse
CCR7 [2] = target: T1, CCR7 (Mus musculus, UniProt P47774); assay: Trans-well chemotaxis assay, primary murine T cells; format: cell-based
T1 construct: confirm that hits identified in the HTS were active against native CCR7; endogenous in cells; host or cells: primary naive (CD25neg) T cells from C57BL/6 mice
T1 sequence (P47774 25-378): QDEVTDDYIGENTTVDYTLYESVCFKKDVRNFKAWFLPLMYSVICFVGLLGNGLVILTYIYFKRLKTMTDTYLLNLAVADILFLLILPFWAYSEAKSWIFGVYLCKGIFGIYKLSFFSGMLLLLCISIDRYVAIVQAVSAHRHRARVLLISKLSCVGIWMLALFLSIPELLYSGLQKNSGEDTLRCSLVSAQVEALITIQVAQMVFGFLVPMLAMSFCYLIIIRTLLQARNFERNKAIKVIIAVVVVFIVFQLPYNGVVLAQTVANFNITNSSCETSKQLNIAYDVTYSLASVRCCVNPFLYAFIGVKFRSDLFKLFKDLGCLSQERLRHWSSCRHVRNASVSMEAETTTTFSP
Method: (§1) FIGS. 1A-1D show cosalane impairs CCR7 driven human and murine chemotaxis. (A, B) Chemotaxis media with or without CCL19 (A) or CCL21 (B) was added to the lower chambers of the chemotaxis device. Previously untreated H9 cells were then placed in the upper chambers of the device with or without cosalane at a concentration of 2 μM. The chamber was then placed at 37° C. for 3.5 hours and total H9 migration from each upper to lower chamber determined. (A) *P=0.048 for comparison between H9 cells/30 nM CCL19 and H9 cells/30 nM CCL19/2 μM cosalane by Student's t test. (B) P>0.05 for comparison between H9 cells/200 nM CCL21 and H9 cells/200 nM CCL21/2 μM cosalane. (C, D) Chemotaxis media with or without CCL19 (C) or CCL21 (D) was added to the lower chambers of the chemotaxis device. Previously untreated primary murine T cells were then placed in the upper chambers of the device with or without cosalane at a concentration of 2 μM. Total T cell migration from each upper to lower chamber was then determined. (C) *P=0.029. (D) *P<0.001.
(§2) While useful from a screening perspective, our primary reporter assays for the HTS were not physiologic. As a result, it was important to confirm that hits identified in the HTS were active against native CCR7 and could block an actual function mediated by the receptor. For this, we used a well-described trans-well chemotaxis assay system using human H9 cells, a cutaneous T cell lymphoma line known to express high levels of CCR7 and to migrate in response to its ligands (Ott et al., J. Pharmacol. Toxicol. Meth. 51:105 (2005)). In addition, we utilized primary mouse, naïve (CD25^neg) T cells obtained from C57BL/6 mice. As depicted in FIG. 1A, human H9 cells placed in the upper chambers of the chemotaxis device readily migrated through the separating membrane when CCL19 was present in the lower chamber. […] Similarly, murine T cell chemotaxis was also impaired by cosalane in response to both CCL19 and CCL21 (FIGS. 1C-1D).
(§3) To evaluate this possibility, human H9 cells were incubated with 10 mcg/ml (13 μM) of cosalane versus DMSO vehicle for one hour and then washed free of the compound. The cells were then placed into the chemotaxis chamber as was done in FIGS. 1A-1D. […] Similar experiments were performed with naïve primary mouse T cells.

CCR7 [3] = target: T2, CCR7 (Homo sapiens, UniProt P32248); assay: Trans-well chemotaxis assay, human H9 cells; format: cell-based; set-up: confirm that hits identified in the HTS were active against native CCR7; endogenous in cells; host or cells: H9 cells (human cutaneous T cell lymphoma line)
T2 sequence (P32248 25-378): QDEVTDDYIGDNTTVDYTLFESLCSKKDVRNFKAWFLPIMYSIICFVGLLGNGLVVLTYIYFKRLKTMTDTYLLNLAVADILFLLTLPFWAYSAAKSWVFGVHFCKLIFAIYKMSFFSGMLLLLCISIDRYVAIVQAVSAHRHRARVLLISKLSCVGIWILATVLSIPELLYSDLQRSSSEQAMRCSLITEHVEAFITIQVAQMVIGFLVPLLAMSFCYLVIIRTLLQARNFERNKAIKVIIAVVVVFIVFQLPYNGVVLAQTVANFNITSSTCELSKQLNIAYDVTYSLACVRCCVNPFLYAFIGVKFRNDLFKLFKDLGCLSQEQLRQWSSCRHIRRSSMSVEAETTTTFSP
Method: as §1, §2, §3

[4] = system: donor (eGFP+) cells in the spleen; assay: Donor engraftment in host spleen by flow cytometry; format: in vivo, mouse; details: whole stem cell product incubated 15 μg/ml, transplant day +10
Method: Purified Tcons and TCD BM cells were obtained from B6 donors transgenic for enhanced green fluorescent protein (eGFP^+) and were mixed together prior to being incubated with cosalane or DMSO. The cells were subsequently administered to irradiated B6D2 recipients and both bone marrow and Tcon engraftment then determined by flow cytometry within the host spleen on transplant day +10. Donor derived cells were distinguished from residual host cells by virtue of their eGFP positivity.

serum albumin = serum albumin (Homo sapiens, UniProt P02768); details: cited from earlier work
[5] = system: murine cytomegalovirus (mCMV); assay: Murine cytomegalovirus plaque assay on 3T3 fibroblasts; format: cell-based
B6 Tcons = assay: Tcon proliferation assay
Method: (A) B6 Tcons were purified and incubated with increasing concentrations of cosalane or equal volumes of DMSO vehicle in normal saline for one hour at 37° C. The cells were then washed and cultured on 24 well plates pre-coated with anti-CD3 and anti-CD28 antibody in the presence of supplemental IL-2 for 72 hours. The number of cells per well were then quantified.
Tcon proliferation assay: Purified CD25^− B6 Tcons were incubated with cosalane at the indicated concentrations or an equal volume of DMSO vehicle for one hour at 37° C. The cells were then washed and cultured on 24-well plates previously incubated overnight with anti-CD3 and anti-CD28 antibody at 10 μg/ml. The cells were cultured for 72 hours in complete media supplemented with murine interleukin-2 at 100 IUs/ml and then counted using a hemacytometer.
Purified B6 Tcons were isolated as before and incubated with cosalane at increasing concentrations ranging from 10 μg/ml (13 μM—the concentration used for the B6 into B6D2 survival experiment described in FIGS. 3D and 3E) to 30 μg/ml (39 μM) or an equal volume of DMSO diluted in normal saline. The cells were then washed, placed on 24 well plates pre-coated with anti-CD3 and anti-CD28 immunoglobulin, and cultured for 72 hours in media containing supplemental IL-2.

[6] = in vitro, previous reports; cited from earlier work
[7] = 10 mcg/ml (13 μM), then washed, vs DMSO
[8] = 10 mcg/ml (13 μM) one hour, then washed

Chain of serum albumin (P02768 25-609): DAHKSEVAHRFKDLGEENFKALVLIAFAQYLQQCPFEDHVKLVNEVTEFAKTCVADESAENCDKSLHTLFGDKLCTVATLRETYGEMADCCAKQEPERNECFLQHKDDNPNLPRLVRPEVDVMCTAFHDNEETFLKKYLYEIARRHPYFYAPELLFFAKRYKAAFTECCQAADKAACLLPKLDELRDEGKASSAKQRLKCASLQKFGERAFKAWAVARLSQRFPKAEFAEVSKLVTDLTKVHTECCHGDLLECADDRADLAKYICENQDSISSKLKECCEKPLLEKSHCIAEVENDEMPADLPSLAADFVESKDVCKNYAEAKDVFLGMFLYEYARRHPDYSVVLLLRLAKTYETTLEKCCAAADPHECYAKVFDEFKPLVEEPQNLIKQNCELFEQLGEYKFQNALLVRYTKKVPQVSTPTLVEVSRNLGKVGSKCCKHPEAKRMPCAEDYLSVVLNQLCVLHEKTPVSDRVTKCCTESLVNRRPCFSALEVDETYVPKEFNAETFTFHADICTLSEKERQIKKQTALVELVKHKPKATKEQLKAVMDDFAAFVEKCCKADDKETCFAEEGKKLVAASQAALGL

## CC(C)CCC[C@@H](C)[C@H]1CC[C@H]2[C@@H]3CC[C@H]4C[C@@H](CCC=C(c5cc(Cl)c(O)c(C(=O)O)c5)c5cc(Cl)c(O)c(C(=O)O)c5)CC[C@]4(C)[C@H]3CC[C@]12C [Cosalane, cosalane]
[1]; Tcons incubated 15 μg/ml in saline
  survival times: prolonged survival times
[1]; Tcons incubated 30 μg/ml
  survival: most recipients surviving to the end of the study period
CCR7 [2]; 2 μM cosalane in upper chamber
  murine T cell chemotaxis in response to CCL19: impaired
  murine T cell chemotaxis in response to CCL21: impaired
CCR7 [2]; [7]
  primary murine T cell chemotaxis in response to CCL19 after pretreatment: significantly reduced
  primary murine T cell chemotaxis in response to CCL21 after pretreatment: significantly reduced
CCR7 [3]; 2 μM cosalane in upper chamber, 30 nM CCL19, 3.5 hours, vs DMSO
  H9 cell migration in response to CCL19: inhibited versus DMSO
CCR7 [3]; 2 μM cosalane in upper chamber, 200 nM CCL21
  H9 cell CCL21 driven chemotaxis: reduced by cosalane, although this did not achieve statistical significance
CCR7 [3]; [8]
  H9 chemotaxis in response to CCL19 after pretreatment alone: significantly reduced
  H9 chemotaxis in response to CCL21 after pretreatment alone: significantly reduced
[4]
  donor cell numbers in the spleen: did not produce any differences in donor monocyte, neutrophil, T cell, or B cell numbers
Serum albumin
  albumin avidity: high albumin avidity
[5]; 15 μg/ml throughout infection, MOI 0.05 and 0.005, vs DMSO
  mCMV plaque number / activity, compound in infectivity media: significantly reduced plaque number
[5]; pretreatment only
  mCMV visible cytopathic effect, isolated pretreatment of 3T3 cells: virtually no effect
B6 Tcons; 10 μg/ml (13 μM) to 30 μg/ml (39 μM), one hour, washed, 72 hours anti-CD3/anti-CD28/IL-2
  Tcon cell numbers after culture: no differences in cell numbers
B6 Tcons; doses up to 39 μM
  cytotoxicity in vitro: did not induce any apparent cytotoxicity
[6]
  therapeutic index: > 100
